Values after ≈ are worked out from the molar mass of the structure shown. Active and inactive are the calls of the source. The rule behind the calls is not given here.
Experiments:
[1] = test system: Mycobacterium tuberculosis; assay: Antimycobacterial activity against Mycobacterium tuberculosis H37Rv ATCC 27294 assessed as inhibition of bacterial growth measured after 5 days by microplate alamar blue assay; format: functional; conditions: H37Rv ATCC 27294, 120 h, time 5 day
[2] = test system: Vero; assay: Cytotoxicity against African green monkey Vero cells assessed as reduction in cell viability measured after 72 hrs by MTT assay; format: cell-based; conditions: Chlorocebus sabaeus
[3] = Selectivity index, ratio of IC50 for African green monkey Vero cells measured after 72 hrs by MTT assay to MIC for antimycobacterial activity against Mycobacterium tuberculosis H37Rv ATCC 27294 assessed as inhibition of bacterial growth measured after 5 days by microplate alamar blue assay; format: toxicity; conditions: read-out: Selectivity Index
[4] = test system: J774.A1; assay: Cytotoxicity against mouse J774.A1 cells assessed as reduction in cell viability measured after 72 hrs by MTT assay; format: cell-based; conditions: J774.A1, 72 h
[5] = test system: Cell membrane; assay: Disruption on membrane integrity in Mycobacterium tuberculosis assessed as red fluorescence at 2X to 4X MIC measured after 24 hrs by SYTO 9/PI staining based inverted flourescence microscopy method
[6] = test system: Mycobacterium tuberculosis; assay: Antimycobacterial activity against Mycobacterium tuberculosis H37Rv infected in mouse J774.A1 cells assessed as log reduction of bacterial growth at 20X MIC measured after 4 days by visual colony counting analysis; format: functional; conditions: time 4 day
[7] = test system: J774.A1; assay: Activation of autophagy in mouse J774.A1 cells infected with Mycobacterium tuberculosis H37Rv assessed as increase of LC3-II expression by measuring ratio of LC3-II to LC3-I at 2.5 ug/ml measured after 24 hrs by Western blot assay (reference value: 1.18); format: functional; conditions: dose 2.5 µg/ml
[8] = Half life in Wistar rat at 2.5 mg/kg, im measured for 48 hrs by HPLC method; format: ADME, organism-based; conditions: in vivo
[9] = test system: J774.A1; assay: Induction of mitochondrial ROS generation in mouse J774.A1 cells infected with Mycobacterium tuberculosis H37Rv at 2.5 ug/ml measured after 24 hrs by Mito-SOX staining based flow cytometry assay; format: functional, cell-based; conditions: dose 2.5 µg/ml
[10] = MRT (0 to infinity) in Wistar rat at 2.5 mg/kg, im by HPLC method; format: ADME, organism-based; conditions: in vivo
[11] = Tmax in Wistar rat at 2.5 mg/kg, im measured for 48 hrs by HPLC method; format: ADME, organism-based; conditions: in vivo
[12] = test system: J774.A1; assay: Induction of mitochondrial ROS generation in mouse J774.A1 cells at 2.5 ug/ml measured after 24 hrs by DCFH-DA staining based flow cytometry assay; format: functional, cell-based; conditions: dose 2.5 µg/ml
[13] = test system: Mycobacterium tuberculosis; assay: Antimycobacterial activity against Mycobacterium tuberculosis H37Rv infected in mouse J774.A1 cells assessed as log reduction of bacterial growth at 1X MIC measured after 4 days by visual colony counting analysis; format: functional; conditions: time 4 day
[14] = test system: J774.A1; assay: Induction of cytoplasmic ROS generation in mouse J774.A1 cells infected with Mycobacterium tuberculosis H37Rv at 2.5 ug/ml measured after 24 hrs by DCFH-DA staining based flow cytometry assay; format: functional, cell-based; conditions: dose 2.5 µg/ml
[15] = Cmax in Wistar rat at 2.5 mg/kg, im measured for 48 hrs by HPLC method; format: ADME, organism-based; parameters: route intramuscular, dose 2.5 mg/kg, time 48 hrs; conditions: in vivo
[16] = test system: Cell membrane; assay: Disruption of membrane integrity Mycobacterium tuberculosis H37Rv assessed as disturbance in energy homeostasis by measuring reduction in ATP content at 0.125 to 2.5 ug/ml measured after 24 hrs by luciferase based bioluminescence assay; conditions: dose 0.125-2.5 µg/ml
[17] = AUC (0 to infinity) in Wistar rat at 2.5 mg/kg, im by HPLC method; format: ADME, organism-based; parameters: time infinity, route intramuscular, dose 2.5 mg/kg; conditions: in vivo
[18] = test system: J774.A1; assay: Induction of cytoplasmic ROS generation in mouse J774.A1 cells at 2.5 ug/ml measured after 24 hrs by DCFH-DA staining based flow cytometry assay; format: functional, cell-based; conditions: dose 2.5 µg/ml
[19] = test system: Mycobacterium tuberculosis; assay: Antimycobacterial activity against Mycobacterium tuberculosis H37Rv infected in mouse J774.A1 cells assessed as log reduction of bacterial growth at 1X to 40X MIC measured after 1 day by visual colony counting analysis; format: functional
[20] = test system: J774.A1; assay: Activation of autophagy in mouse J774.A1 cells infected with Mycobacterium tuberculosis H37Rv assessed as increase of LC3-II expression by measuring ratio of LC3-II to LC3-I at 5 ug/ml measured after 24 hrs by Western blot assay (reference value: 1.18); format: functional; conditions: dose 5 µg/ml
[21] = test system: J774.A1; assay: Activation of autophagy in mouse J774.A1 cells assessed as LC3-II expression by measuring ratio of LC3-II to LC3-I measured after 24 hrs by Western blot assay (reference value: 1.04); format: functional
[22] = test system: J774.A1; assay: Activation of autophagy in mouse J774.A1 cells assessed as LC3 accumulation measured after 24 hrs by immunofluorescence staining analysis; format: functional, cell-based
[23] = test system: Mycobacterium tuberculosis; assay: Antimycobacterial activity against Mycobacterium tuberculosis H37Rv infected in mouse J774.A1 cells assessed as log reduction of bacterial growth at 40X MIC measured after 4 days by visual colony counting analysis; format: functional; conditions: time 4 day
[24] = AUC (0 to t) in Wistar rat at 2.5 mg/kg, im measured for 48 hrs by HPLC method; format: ADME, organism-based; parameters: dose 2.5 mg/kg, time 48 hrs; conditions: in vivo
[25] = MRT (0 to t) in Wistar rat at 2.5 mg/kg, im measured for 48 hrs by HPLC method; format: ADME, organism-based; conditions: in vivo
[26] = test system: J774.A1; assay: Activation of autophagy in mouse J774.A1 cells infected with Mycobacterium tuberculosis H37Rv assessed as increase in LC3 accumulation at 2.5 to 5 ug/ml measured after 24 hrs by immunofluorescence staining analysis; format: functional, cell-based; conditions: dose 2.5-5 µg/ml
[27] = test system: Mycobacterium tuberculosis; assay: Antimycobacterial activity against Mycobacterium tuberculosis H37Rv infected in mouse J774.A1 cells assessed as log reduction of bacterial growth at 10X MIC measured after 4 days by visual colony counting analysis; format: functional; conditions: time 4 day
[28] = Toxicity in Wistar rat assessed as abnormal behaviour at 2.5 mg/kg, im measured for 48 hrs; format: organism-based; conditions: in vivo
[29] = test system: J774.A1; assay: Activation of autophagy in mouse J774.A1 cells infected with Mycobacterium tuberculosis H37Rv assessed as increase of LC3-II expression by measuring ratio of LC3-II to LC3-I at 1 ug/ml measured after 24 hrs by Western blot assay (reference value: 1.18); format: functional; conditions: dose 1 µg/ml

Question: With `CC(=O)c1c(C)[n+]([O-])c2cc(F)c(F)cc2[n+]1[O-]` as the compound, how does the MIC [1] read?
Answer: 2 µg/mL (≈ 7.87 µM)

Question: What about the IC50 [2] of the same compound?
Answer: 22.4 µM

Question: What about the selectivity ratio at 72 hrs [3] of the same compound?
Answer: 2.8

Question: For `Cc1c(C(=O)OC(C)C)[n+]([O-])c2cc(F)c(F)cc2[n+]1[O-]`, which MIC [1] is on record?
Answer: 16 µg/mL (≈ 53.6 µM)

Question: With `CCOC(=O)c1c(C)[n+]([O-])c2cc(N3CCNCC3)c(F)cc2[n+]1[O-]` as the compound, how does the MIC [1] read?
Answer: 4 µg/mL (≈ 11.4 µM)

Question: Which MIC [1] does the source give for `CCOC(=O)c1c(C(F)(F)F)[n+]([O-])c2cc(-n3ccnc3)c(F)cc2[n+]1[O-]` here?
Answer: 0.25 µg/mL (≈ 0.647 µM)

Question: What about the IC50 [2] of the same compound?
Answer: 19.4 µM

Question: And the selectivity ratio at 72 hrs [3]?
Answer: 30

Question: For `CCOC(=O)c1c(C)[n+]([O-])c2cc(N3CCN(C)CC3)c(F)cc2[n+]1[O-]`, which MIC [1] is on record?
Answer: 8 µg/mL (≈ 22 µM)

Question: For `CCOC(=O)c1c(C)[n+]([O-])c2cc(N3CCCC3)c(F)cc2[n+]1[O-]`, which MIC [1] is on record?
Answer: 64 µg/mL (≈ 191 µM)

Question: With `CCCC(=O)c1c(C)[n+]([O-])c2cc(F)c(F)cc2[n+]1[O-]` as the compound, how does the MIC [1] read?
Answer: 8 µg/mL (≈ 28.3 µM)

Question: Which MIC [1] does the source give for `CCOC(=O)c1c(C)[n+]([O-])c2cc(N3CCCCC3)c(F)cc2[n+]1[O-]` here?
Answer: 32 µg/mL (≈ 91.6 µM)

Question: Which MIC [1] does the source give for `CC(=O)c1c(C)[n+]([O-])c2ccccc2[n+]1[O-]` [MEQUINDOX] here?
Answer: 8 µg/mL (≈ 36.7 µM)

Question: For `CC(=O)c1c(C)[n+]([O-])c2cc(N3CCNCC3)ccc2[n+]1[O-]`, which MIC [1] is on record?
Answer: 64 µg/mL (≈ 212 µM)

Question: Which MIC [1] does the source give for `CCOC(=O)c1c(C)[n+]([O-])c2cc(F)c(F)cc2[n+]1[O-]` here?
Answer: 1 µg/mL (≈ 3.52 µM)

Question: What about the IC50 [2] of the same compound?
Answer: 30.6 µM

Question: And the selectivity ratio at 72 hrs [3]?
Answer: 8.7

Question: With `CC(=O)c1c(C)[n+]([O-])c2cc(-n3ccnc3)c(F)cc2[n+]1[O-]` as the compound, how does the IC50 [4] read?
Answer: 77.7 µM

Question: And the MIC [1]?
Answer: 0.5 µg/mL (≈ 1.65 µM)

Question: What about the IC50 [2] of the same compound?
Answer: 95.7 µM

Question: What about the selectivity ratio at 72 hrs [3] of the same compound?
Answer: 46.4

Question: Which MIC [1] does the source give for `CO[C@H]1/C=C/O[C@@]2(C)Oc3c(C)c(O)c4c(O)c(c(/C=N/N5CCN(C)CC5)c(O)c4c3C2=O)NC(=O)/C(C)=C\C=C\[C@H](C)[C@H](O)[C@@H](C)[C@@H](O)[C@@H](C)[C@H](OC(C)=O)[C@@H]1C` [RIFAMPIN] here?
Answer: 0.0625 µg/mL (≈ 0.0759 µM)

Question: For `Cc1c(C(=O)OCc2ccccc2)[n+]([O-])c2cc(F)c(-n3cncn3)cc2[n+]1[O-]`, which Activity [5] is on record?
Answer: Active

Question: And the “log(activity)” value [6]?
Answer: 2.12

Question: What about the Ratio [7] of the same compound?
Answer: 1.92

Question: What about the IC50 [4] of the same compound?
Answer: 77.7 µM

Question: And the half-life [8]?
Answer: 5.94 h

Question: And the Activity [9]?
Answer: Active

Question: What about the MRT inf [10] of the same compound?
Answer: 7.38 h

Question: And the Tmax [11]?
Answer: 2 h

Question: What about the Activity [12] of the same compound?
Answer: inactive

Question: What about the “log(activity)” value [13] of the same compound?
Answer: 0.74

Question: What about the MIC [1] of the same compound?
Answer: 0.125 µg/mL (≈ 0.316 µM)

Question: What about the IC50 [2] of the same compound?
Answer: 123 µM

Question: And the Activity [14]?
Answer: Active

Question: And the Cmax [15]?
Answer: 1560 ng/mL

Question: And the Activity [16]?
Answer: Active

Question: And the AUC(0-inf) [17]?
Answer: 10600 ng·h/mL

Question: And the Activity [18]?
Answer: inactive

Question: And the “log(activity)” value [19]?
Answer: 0.1

Question: What about the Ratio [20] of the same compound?
Answer: 2.59

Question: What about the Ratio [21] of the same compound?
Answer: 0.78

Question: What about the Activity [22] of the same compound?
Answer: inactive

Question: What about the “log(activity)” value [23] of the same compound?
Answer: 2.73

Question: And the AUC(0-t) at 48 h [24]?
Answer: 10100 ng·h/mL

Question: What about the MRT last at 48 h [25] of the same compound?
Answer: 6.04 h

Question: What about the Activity [26] of the same compound?
Answer: Active

Question: What about the “log(activity)” value [27] of the same compound?
Answer: 1.56

Question: And the selectivity ratio at 72 hrs [3]?
Answer: 328

Question: What about the Activity [28] of the same compound?
Answer: Non-Toxic

Question: What about the Ratio [29] of the same compound?
Answer: 1.74

Question: For `CCOC(=O)c1c(C)[n+]([O-])c2cc(-n3ccnc3)c(F)cc2[n+]1[O-]`, which IC50 [4] is on record?
Answer: 77.7 µM

Question: And the MIC [1]?
Answer: 0.25 µg/mL (≈ 0.752 µM)

Question: What about the IC50 [2] of the same compound?
Answer: 129 µM

Question: What about the selectivity ratio at 72 hrs [3] of the same compound?
Answer: 172

Question: With `Cc1c(C(=O)OC(C)C)[n+]([O-])c2cc(-n3ccnc3)c(-n3ccnc3)cc2[n+]1[O-]` as the compound, how does the MIC [1] read?
Answer: 8 µg/mL (≈ 20.3 µM)

Source: ChEMBL document CHEMBL4840311, “Discovery of novel nitrogenous heterocyclic-containing quinoxaline-1,4-di-N-oxides as potent activator of autophagy in M.tb-infected macrophages” (Eur J Med Chem, 2021)
